{"source": "patent US10295551B2", "about": "“Development and use of fluorescent probes of unbound bilirubin” (Alan Marc Kleinfeld, priority 2011, dated 2019)", "key": {"[1]": {"target": "T1, rI-FABP (SEQ ID NO: 3) variant L24P19 C7 K27K 25C, 14R 18L 25C 38V 60R 73F 106C 115R 117D (Rattus norvegicus, UniProt P02693, A74F/L39V/L73A/M19L/Q116R/R107C/V26C/V61R/Y118D/Y15R)", "T1 construct": "made in house", "T1 sequence (P02693 with tags, fused parts or gaps Y15R/M19L/V26C/L39V/V61R/L73A/A74F/R107C/Q116R/Y118D)": "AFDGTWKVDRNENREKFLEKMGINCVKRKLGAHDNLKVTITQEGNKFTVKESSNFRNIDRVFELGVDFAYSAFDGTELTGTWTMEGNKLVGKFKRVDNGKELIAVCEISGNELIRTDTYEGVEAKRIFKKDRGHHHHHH", "experiment": "bilirubin binding to L24P19C7 25C probe", "conditions": "Table 5, acrylodan", "procedure": "(§1) Also described are analytical/mathematical methods for calibrating and using the bilirubin probes. Bilirubin probes are calibrated to determine their binding affinity for bilirubin (dissociation constant Kd) under conditions, such as temperature, pH and solution composition, that correspond to samples in which it is desired to know the unbound bilirubin concentration. Binding isotherms are performed in aqueous buffer by measuring the change in fluorescence of the bilirubin probes in response to increasing bilirubin concentrations (“titration data”). The set of fluorescence responses at each bilirubin concentration are fitted with an appropriate equation (“calibration equation”) that correctly describes the fluorescence response as a function of the bilirubin concentration, the probe concentration, specific spectroscopic characteristics, and the Kd.\n(§2) . […] The optimal probe performance was obtained with cysteine at positions 25 or 26."}, "[2]": {"target": "T2, rI-FABP (SEQ ID NO: 3) variant L2P14F7 MGI KR14 K27K, MGI - KR14 - 18G 27K 31M 72A (Rattus norvegicus, UniProt P02693, G32M/K101R/K126R/K17R/K21R/K30R/K38R/K47R/K51R/K89R/K8R/K93R/K95R/L73A/M19G)", "T2 construct": "made in house", "T2 sequence (P02693 with tags, fused parts or gaps with the stated changes)": "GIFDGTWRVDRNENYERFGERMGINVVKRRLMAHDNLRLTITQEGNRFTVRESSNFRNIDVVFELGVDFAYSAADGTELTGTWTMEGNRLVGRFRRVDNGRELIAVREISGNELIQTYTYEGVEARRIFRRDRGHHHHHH", "experiment": "bilirubin binding to L2P14F7 MGI KR14 K27K probe", "conditions": "Table 6, acrylodan", "procedure": "as §1"}, "[3]": {"target": "T3, rI-FABP (SEQ ID NO: 3) variant L2P14F7 MGI KR14 K27C, MGI - KR14 - 18G 27C 31M 72A (Rattus norvegicus, UniProt P02693, A2G/G32M/INS2I/K101R/K126R/K130R/K131R/K17R/K21R/K28C/K30R/K38R/K47R/K51R/K89R/K8R/K93R/K95R/L73A/M19G)", "T3 construct": "made in house", "T3 sequence (P02693 with tags, fused parts or gaps with the stated changes)": "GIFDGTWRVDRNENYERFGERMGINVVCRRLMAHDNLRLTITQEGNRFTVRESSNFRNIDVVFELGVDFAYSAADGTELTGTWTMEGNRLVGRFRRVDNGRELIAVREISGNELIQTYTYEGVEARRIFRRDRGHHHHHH", "experiment": "bilirubin binding to L2P14F7 MGI KR14 K27C probe", "conditions": "Table 5, acrylodan", "procedure": "as §1"}, "[4]": {"target": "T4, rI-FABP (SEQ ID NO: 3) variant L24P19 C7 K27A, 14R 18L 27A 38V 60R 73F 106C 115R 117D (Rattus norvegicus, UniProt P02693, A74F/K28A/L39V/L73A/M19L/Q116R/R107C/V61R/Y118D/Y15R)", "T4 construct": "made in house", "T4 sequence (P02693 with tags, fused parts or gaps Y15R/M19L/K28A/L39V/V61R/L73A/A74F/R107C/Q116R/Y118D)": "as the sequence (P02693 with tags, fused parts or gaps Y15R/M19L/V26C/L39V/V61R/L73A/A74F/R107C/Q116R/Y118D) above, with C25V, K27A counted along it", "experiment": "bilirubin binding to L24P19C7 K27A probe", "conditions": "Table 5, acrylodan", "procedure": "as §1"}, "[5]": {"target": "rI-FABP (SEQ ID NO: 3) variant L2P14 F7, 18G 31M 72A (Rattus norvegicus, UniProt P02693, G32M/L73A/M19G)", "sequence (P02693 with tags, fused parts or gaps M19G/G32M/L73A)": "as the sequence (P02693 with tags, fused parts or gaps Y15R/M19L/V26C/L39V/V61R/L73A/A74F/R107C/Q116R/Y118D) above, with R14Y, L18G, C25V, G31M, V38L, R60V, F73A, C106R, R115Q, D117Y counted along it", "experiment": "bilirubin binding to L2P14F7 probe", "conditions": "Table 6, acrylodan", "procedure": "as §1"}, "[6]": {"target": "T5, rI-FABP (SEQ ID NO: 3) variant L24P19 C7 K27K 22C, 14R 18L 22C 38V 60R 73F 106C 115R 117D (Rattus norvegicus, UniProt P02693, A74F/G23C/L39V/L73A/M19L/Q116R/R107C/V61R/Y118D/Y15R)", "T5 construct": "made in house", "T5 sequence (P02693 with tags, fused parts or gaps Y15R/M19L/G23C/L39V/V61R/L73A/A74F/R107C/Q116R/Y118D)": "as the sequence (P02693 with tags, fused parts or gaps Y15R/M19L/V26C/L39V/V61R/L73A/A74F/R107C/Q116R/Y118D) above, with G22C, C25V counted along it", "experiment": "bilirubin binding to L24P19C7 22C probe", "conditions": "Table 5, acrylodan", "procedure": "as §1, §2"}, "[7]": {"target": "T6, rI-FABP (SEQ ID NO: 3) variant L22P33 A10, 38R 72A 73N 106S 115C (Rattus norvegicus, UniProt P02693, A74N/L39R/L73A/Q116C/R107S)", "T6 construct": "made in house", "T6 sequence (P02693 with tags, fused parts or gaps L39R/L73A/A74N/R107S/Q116C)": "as the sequence (P02693 with tags, fused parts or gaps Y15R/M19L/V26C/L39V/V61R/L73A/A74F/R107C/Q116R/Y118D) above, with R14Y, L18M, C25V, V38R, R60V, F73N, C106S, R115C, D117Y counted along it", "experiment": "bilirubin binding to L22P33A10 probe", "conditions": "Table 5, acrylodan", "procedure": "as §1"}, "[8]": {"target": "T7, rI-FABP (SEQ ID NO: 3) variant BL2P2 B6, 14R 18L 31C 38V 60R 73V 106A 115R 117D (Rattus norvegicus, UniProt P02693, A74V/G32C/L39V/L73A/M19L/Q116R/R107A/V61R/Y118D/Y15R)", "T7 construct": "made in house", "T7 sequence (P02693 with tags, fused parts or gaps Y15R/M19L/G32C/L39V/V61R/L73A/A74V/R107A/Q116R/Y118D)": "as the sequence (P02693 with tags, fused parts or gaps Y15R/M19L/V26C/L39V/V61R/L73A/A74F/R107C/Q116R/Y118D) above, with C25V, G31C, F73V, C106A counted along it", "experiment": "bilirubin binding to BL2P2B6 probe", "conditions": "Table 5, acrylodan", "procedure": "as §1"}, "[9]": {"target": "T8, rI-FABP (SEQ ID NO: 3) variant L22P19 B9, 38R 72A 73M 106Q 115C (Rattus norvegicus, UniProt P02693, A74M/L39R/L73A/Q116C/R107Q)", "T8 construct": "made in house", "T8 sequence (P02693 with tags, fused parts or gaps L39R/L73A/A74M/R107Q/Q116C)": "as the sequence (P02693 with tags, fused parts or gaps Y15R/M19L/V26C/L39V/V61R/L73A/A74F/R107C/Q116R/Y118D) above, with R14Y, L18M, C25V, V38R, R60V, F73M, C106Q, R115C, D117Y counted along it", "experiment": "bilirubin binding to L22P19B9 probe", "conditions": "Table 5, acrylodan", "procedure": "as §1"}, "[10]": {"target": "T9, rI-FABP (SEQ ID NO: 3) variant BL10P10 D10, 14F 18L 27C 38M 60Y 73F 106V 115R 117D (Rattus norvegicus, UniProt P02693, A74F/K28C/L39M/L73A/M19L/Q116R/R107V/V61Y/Y118D/Y15F)", "T9 construct": "made in house", "T9 sequence (P02693 with tags, fused parts or gaps Y15F/M19L/K28C/L39M/V61Y/L73A/A74F/R107V/Q116R/Y118D)": "as the sequence (P02693 with tags, fused parts or gaps Y15R/M19L/V26C/L39V/V61R/L73A/A74F/R107C/Q116R/Y118D) above, with R14F, C25V, K27C, V38M, R60Y, C106V counted along it", "experiment": "bilirubin binding to BL10P10D10 probe", "conditions": "Table 5, acrylodan", "procedure": "as §1"}, "[11]": {"target": "T10, rI-FABP (SEQ ID NO: 3) variant L2P14 F7 - K27C, 18G 27C 31M 72A (Rattus norvegicus, UniProt P02693, G32M/K28C/L73A/M19G)", "T10 construct": "made in house", "T10 sequence (P02693 with tags, fused parts or gaps M19G/K28C/G32M/L73A)": "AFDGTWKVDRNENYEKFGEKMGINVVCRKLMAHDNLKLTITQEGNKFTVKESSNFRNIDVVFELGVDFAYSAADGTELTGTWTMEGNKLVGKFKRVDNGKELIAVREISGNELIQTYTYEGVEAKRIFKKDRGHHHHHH", "experiment": "bilirubin binding to L2P14F7-K27C probe", "conditions": "Table 5, acrylodan", "procedure": "as §1"}, "[12]": {"target": "T11, rI-FABP (SEQ ID NO: 3) variant L24P19 C7 K27K 26C, 14R 18L 26C 38V 60R 73F 106C 115R 117D (Rattus norvegicus, UniProt P02693, A74F/L39V/L73A/M19L/Q116R/R107C/V27C/V61R/Y118D/Y15R)", "T11 construct": "made in house", "T11 sequence (P02693 with tags, fused parts or gaps Y15R/M19L/V27C/L39V/V61R/L73A/A74F/R107C/Q116R/Y118D)": "as the sequence (P02693 with tags, fused parts or gaps Y15R/M19L/V26C/L39V/V61R/L73A/A74F/R107C/Q116R/Y118D) above, with C25V, V26C counted along it", "experiment": "bilirubin binding to L24P19C7 26C probe", "conditions": "Table 5, acrylodan", "procedure": "as §1, §2"}, "[13]": {"target": "T12, rI-FABP (SEQ ID NO: 3) variant BL22P1B11, MGI-KR14-14R 18L 25C 27A 38V 60R 73F 106L 115R 117D, SEQ ID NO: 35 (Rattus norvegicus, UniProt P02693, A74F/K101R/K126R/K17R/K21R/K28A/K30R/K38R/K47R/K51R/K89R/K8R/K93R/K95R/L39V/L73A/M19L/Q116R/R107L/V26C/V61R/Y118D/Y15R)", "T12 construct": "made in house", "T12 sequence (P02693 with tags, fused parts or gaps with the stated changes)": "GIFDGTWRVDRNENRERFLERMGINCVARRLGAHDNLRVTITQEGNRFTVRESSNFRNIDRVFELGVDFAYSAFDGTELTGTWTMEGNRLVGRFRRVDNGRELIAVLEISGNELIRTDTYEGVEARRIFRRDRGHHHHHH", "type": "binding", "conditions": "Table 5, Alexa Fluor 680 C2-maleimide; read-out: Kd"}, "[14]": {"target": "T13, rI-FABP (SEQ ID NO: 3) variant L24P19 C7, 14R 18L 27A 38V 60R 73F 106A 115R 117D (Rattus norvegicus, UniProt P02693, A74F/K28A/L39V/L73A/M19L/Q116R/R107A/V61R/Y118D/Y15R)", "T13 construct": "Residues 27 and 106 disputed: row prints 27A 106A", "T13 sequence (P02693 with tags, fused parts or gaps Y15R/M19L/K28A/L39V/V61R/L73A/A74F/R107A/Q116R/Y118D)": "as the sequence (P02693 with tags, fused parts or gaps Y15R/M19L/V26C/L39V/V61R/L73A/A74F/R107C/Q116R/Y118D) above, with C25V, K27A, C106A counted along it", "experiment": "bilirubin binding to L24P19 C7 as listed in Table 6", "conditions": "Table 6, acrylodan", "procedure": "as §1"}}}
{"smiles": "C=CC1=C(C)/C(=C/c2[nH]c(Cc3[nH]c(/C=C4\\NC(=O)C(C)=C4C=C)c(C)c3CCC(=O)O)c(CCC(=O)O)c2C)NC1=O", "note": "[bilirubin]", "values": [{"measurement": "Kd", "setting": "[1]", "result": 19, "unit": "nM"}, {"measurement": "Kd", "setting": "[2]", "result": 84, "unit": "nM"}, {"measurement": "Kd", "setting": "[3]", "result": 350, "unit": "nM"}, {"measurement": "Kd", "setting": "[4]", "result": 21, "unit": "nM"}, {"measurement": "Kd", "setting": "[5]", "result": 69, "unit": "nM"}, {"measurement": "Kd", "setting": "[6]", "result": 71, "unit": "nM"}, {"measurement": "Kd", "setting": "[7]", "result": 245, "unit": "nM"}, {"measurement": "Kd", "setting": "[8]", "result": 137, "unit": "nM"}, {"measurement": "Kd", "setting": "[9]", "result": 400, "unit": "nM"}, {"measurement": "Kd", "setting": "[10]", "result": 400, "unit": "nM"}, {"measurement": "Kd", "setting": "[11]", "result": 250, "unit": "nM"}, {"measurement": "Kd", "setting": "[12]", "result": 19, "unit": "nM"}, {"measurement": "Kd", "setting": "[13]", "result": 110, "unit": "nM"}, {"measurement": "Kd", "setting": "[14]", "result": 33, "unit": "nM"}]}
